pIC50: −log10 of the molar value.
Key:
[1] = system: Human subcutaneous pre-adipocytes; experiment: Lipogenesis Assay (AdipoRed staining); format: cell-based; settings: AdipoRed fluorescence, NI = no inhibition at concentration less than/equal to 1 mM
Description: Lipogenesis is the process by which acetyl-CoA is converted to fatty acid. Through lipogenesis and subsequent triglyceride synthesis, energy can be stored in the form of adipose tissue (i.e. fats). To determine what effect, if any, activating compounds (shown in TABLE 1) had on lipogenesis, the protocol listed below was used.
To determine whether the activating compounds (shown in TABLE 1) impacted the formation of white adipocytes from pre-adipocytes, a lipogenesis assay was performed. The cells utilized in the protocol were cryo-preserved Human subcutaneous pre-adipocytes superlot (Zen-Bio, Inc., Research Triangle Park, N.C., Cat # SP-F-SL). The growth media used was PM-1 (Zen-Bio, Inc., Research Triangle Park, N.C., cat # PM-1) plus 5 ng/mL Epidermal Growth Factor (EGF). The PM-1+5 ng/mL EGF was prepared by adding 12.5 uL of 200 ug/mL EGF stock to 500 mL PM-1. The differentiation media used was DM-2 (Zen-Bio, Inc., Research Triangle Park, N.C., cat # DM-2). The adipocyte maintenance media used was AM-1 (Zen-Bio, Inc., Research Triangle Park, N.C., cat # AM-1).
First, the human subcutaneous pre-adipocyte cells were thawed in a 37° C. water bath. Next, the thawed pre-adipocyte cells were added to 9 mL of growth medium (PM-1) at 20° C. in a 15 mL polypropylene tube (Bioexpress, Corning, Corning, N.Y.). The tube was centrifuged at 280×g (˜1100 rpm) at 20° C. for 5 min. After 5 min, the supernatant was removed and the accumulated solids were re-suspended in 2 mL of PM-1 using trituration. The suspension of cells was counted under 100× magnification using a Cyto C-Chip hemacytometer (Incyto, Seoul, South Korea, cat # DHC-N01-5). In order to proceed, 15-50 cells per 1×1 mm square in hemacytometer was needed. If, the number of cells per square was not met, 6.7×10^5 (670,000) cells per T75 flask (Bioexpress, Corning, Corning, N.Y.) were added to each square and the suspension was diluted to 20 mL with PM-1. Every other day, new media was added to replace media removed due to metabolism by the cells. The cells were re-counted as described previously. Cells were grown to 80-90% confluence, which took approximately 4-5 days. 80-90% confluence is determined by visual inspection of the area of the flask occupied by the cells. When 80-90% of the flask area has been occupied, cells are at 80-90% confluence. Cell colonies were then split 1:6 by harvesting from a single flask and equally dividing the harvested cells into six flasks. Colonies were not allowed to exceed 3 passages and were not grown to complete confluence. The pre-adipocytes were grown until they contact with other cells in the flask to aid differentiation into white or brown adipocytes.
After the pre-adipocytes were sufficiently grown to 90% confluence, the cells were ready for differentiation and treatment with an activating compound. Cells were washed with 3 mL of PBS and detached using 3 mL of Trypsin EDTA. The cells were incubated at 37° C. for 5 minutes. Next, the cells were centrifuged at 280×g at 20° C. for 5 minutes. The supernatant was discarded and the resulting pellet was re-suspended in 10 mL of PM-1 using trituration. Cells were counted at 100× magnification and the cells were diluted to 86,667 cells/mL (˜13,000 cells/150 μL) by adding the necessary amount of PM-1 to achieve the desired concentration. Upon addition of PM-1, samples were swirled by hand to evenly disperse the cells prior to plating.
Once confluence is reached, 150 μL of differentiation media (DM-2) was added (DAY 0). Samples were incubated at 37° C. for 6 days. On DAY 6, 90 μL of media was removed from each sample via aspiration, without touching the bottom of the well. Next, 140 μL of adipocyte maintenance medium (AM-1) was added. The AM-1 ran down the side of well. On DAY 6, activating compounds were added (2 μL of 10 mM activating compound) to give a final concentration of 100 μM of activating compounds. […]

adipocytes = experiment: Real Time PCR analysis of adipocytes, in vitro; format: cell-based, human; settings: Real Time PCR, relative to untreated control = 1
Description: For Real Time PCR analysis of adipocytes, cells from cultures grown in 24 well plates were collected. RNA was isolated using RNeasy Kit (Cat 74104, Qiagen, Germantown, Md.) using manufacturer's protocol. RNA was quantitated using the Nanodrop 1000 (Thermofisher, Waltham, Mass.). cDNA formation was carried out using PowerUp SYBR™ Green Master Mix and real time PCR carried out on QuantStudio 6 machine (ThermoFisher, Waltham, Mass.) per manufacturer protocol. ΔΔCT analysis was done using the Expression Suite software (ThermoFisher) purchased with the instrument.
TABLE 2 used Real Time PCR to determine which proteins were expressed in adipocytes upon treatment with activating compounds. […] Real Time PCR values were relative to a control sample that was not treated with any activating compounds. […] In WS-5 and Menthol, no Real Time PCR value was over 2.0, which indicated only slight changes in mRNA expression.

| SMILES | pIC50 ([1]; Homo sapiens) | Relative Expression of mRNA in Adipocytes: 18S (adipocytes) | Relative Expression of mRNA in Adipocytes: ACADM (adipocytes) | Relative Expression of mRNA in Adipocytes: CPT1A (adipocytes) | Relative Expression of mRNA in Adipocytes: FASN (adipocytes) | Relative Expression of mRNA in Adipocytes: GAPDH (adipocytes) | Relative Expression of mRNA in Adipocytes: PPARGC1A (adipocytes) | Relative Expression of mRNA in Adipocytes: PRDM16 (adipocytes) | Lipogenesis IC50 [1] | Relative Expression of mRNA in Adipocytes: UCP-1 (adipocytes) | pIC50 [1] |
| --- | --- | --- | --- | --- | --- | --- | --- | --- | --- | --- | --- |
| CC(C)[C@@H]1CC[C@@H](C)C[C@H]1C(=O)NC[C@@H](NC(=O)[C@H](C)N)c1ccccc1 [Formula III] | 4.60 | 1 | 1.75 | 1.7 | 1.85 | 1 | 0.8 | 0.6 | – | – | – |
| CC1CCC(C(C)C)C(O)C1 (stereo not shown) [Menthol] | < 3.00 | 1 | 1.45 | 1.35 | 1.45 | 1 | 2.0 | 0.75 | no inhibition | 1.7 | – |
| CCOC(=O)CNC(=O)[C@@H]1C[C@H](C)CC[C@H]1C(C)C [WS-5] | 3.30 | 0.85 | 1.45 | 1.5 | 2.0 | 1 | 1.7 | 1.3 | – | 1.5 | 3.22 |

— US20200138764A1, “METHODS AND DEVICES FOR ACTIVATING ADIPOSE TISSUE” (The Procter & Gamble Company, priority 2018, published 2020)
